Data set [1] deals with C. violaceum CV026. The data set is described as follows: Preliminary screening of bacterial quorum sensing agonistic / inhibitory activity on LB plate (purple stain / white circle). To be noted: 1 μl of 0.065M compound spotted on LB plate with C. violaceum CV026, without (agonistic) or with inducer C6-HSL (inhibitory), 30° C., 16-18 h. It is filed as cell-based. How it is done: 1.1 Preparation work: different compounds to be tested (Compounds 1-29 prepared in Example 1-29 and intermediates 1-3) were weighted and then were dissolved in 200 μl DMSO (dimethyl sulfoxide) to prepare a solution at a concentration of 0.065M. 5.0 mg inducer, N-hexanoyl homoserine lactone (C6-HSL, purchased from Sigma Company), was weighted and was dissolved in 200 μl DMSO (at a concentration of 0.125M), and the compounds and the inducer were stored at 4[…] for further use. C. violaceum CV026 (donated by Professor McLean J C from Texas State University) in LB culture medium (LB culture medium consisting of 1% (percentage by mass) tryptone, 0.5% (percentage by mass) yeast extract, 1% (percentage by mass) NaCl and water) was cultured under shaking in a shaker at 30 °C, 200 rpm to get the culture medium for further use.
1.2 Method for preliminary screening of compounds having agonistic activity: 400 μl C. violaceum CV026 (at a bacterial concentration of 1×10^8/ml) was added to 5 ml melted semi-solid LB culture medium, and was mixed well; the mixed culture medium was poured into a solid LB plate; when the mixed culture medium was solidified on the plate, lattice was made thereon; 1 μl of the dissolved compounds to be tested (Compounds 1-29 in Examples 1-29, at a concentration of 0.065M) was spotted on the plate; when the compounds on the plate was dried in air, the plate was put in a 30° C. oven upside down and was cultured for a period of 16-18 h. If the compound to be tested has an agonistic effect on C. violaceum CV026 on the LB plate, purple stain will be induced on the LB plate. The agonistic activity of a compound is determined depending on whether purple stain is induced for C. violaceum CV026 on LB plate as well as the purple depth.
1.3 Method for preliminary screening of compounds having inhibitory activity: the inducer C6—HSL was diluted gradiently to 1000 times by means of 2-fold dilution; 15 μl diluted inducer and 400 μl C. violaceum CV026 in exponential phase (at a bacterial concentration of 1×10^8/ml) were mixed well and then were added to a 5 ml melted semi-solid LB culture medium; the mixture of inducer, C. violaceum, and semi-solid LB was poured onto a solid LB plate; when the mixture was solidified on the plate, lattice was made thereon; 1 μl of the dissolved compounds to be tested (Compounds 1-29 prepared in Example 1-29 and intermediates 1-3, at a concentration of 0.065M) was spotted on the plate; when the compounds on the plate were dried in air, the plate was put in a 30° C. oven upside down and was cultured for a period of 16-18 h. […] The inhibitory activity of a compound is preliminary determined depending on the size of the white circle appeared after C. violaceum CV026 was inhibited on LB plate.

In data set [2] the test system is C. violaceum CV026. In words: Measurement of IC50 of compounds having an inhibitory effect on C. violaceum quorum sensing (purple pigment absorbance at 585 nm). Type of data set: cell-based. To be noted: Chromobacterium violaceum, read-out: IC50 of compounds having bacterial quorum sensing inhibitory activity. How it is done:
2.1 The wells of a 12-well plate were marked as initial concentration, 2, 4, 8, 16, 32, 64, 128, 256, DMSO group, and a blank control group from left to right and from up to bottom, respectively.
2.2 The monoclonal C. violaceum CV026 grew on LB solid plate was cultured to exponational phase in a 5 ml fresh LB liquid culture medium, 50 μl was then taken for seeding in a 5 ml LB culture medium, and was cultured until the optical density OD value was about 1.0 at 585 nm; the culture was then mixed well with LB culture medium at a ratio of 1:9 by volume (with OD of about 0.15), and was added to a 12-well plate in an amount of 2 ml/well.
2.3 The compounds preliminarily screened to have quorum sensing inhibitory activity were dissolved respectively in DMSO (at a concentration of 0.065M), and then 10 μl was taken into 10 μl DMSO solution to achieve the purpose of 2-fold dilution, and so on. Each compound was gradiently diluted to a highest fold of 256 (gradient dilution of 2, 4, 8, 16, 32, 64, 128, 256 fold).
2.4 To each well, 15 μl 1000-fold diluted inducer C6—HSL (initial concentration of 0.125M) and 8 μl compound solution at each diluted gradient was added; to DMSO control group, 8 μl DMSO was added; to a blank control group, 8 μl LB culture medium was added. Finally, it was ensured that 2 ml culture in each of the 12-well plate was mixed well.
2.5 The 12-well plate was placed in a 30° C. shaker at 130 rpm and was cultured for 10-12 h.
2.6 After the culture was finished, 1 ml culture was taken from each well and was put in a 1.5 ml EP tube and then was centrifugated at 12000 rpm for 10 mins. The supernatant of the culture was sucked out, and 500 μl DMSO was added to each EP tube to dissolve the purple pigment in the culture. After the pigment was completely dissolved, centrifugation was performed at 12000 rpm for 10 mins. 200 μl supernatant pigment was put in a 96-well culture plate, and was measured for absorbance value at 585 nm by a Microplate Reader, […] the absorbance value and the corresponding concentration were plotted to get the IC50 value.

Here are results for one compound from patent publication US9630939B2, “Derivative of homoserine lactone, and preparation method and use thereof” (priority 2013, dated 2017).

For orientation: melting point means the temperature of the solid-liquid transition. Broadly, the IC50 is the concentration that gives 50% inhibition. `O=C(Nc1ccc(S(=O)(=O)N[C@H]2CCOC2=O)cc1)c1ccccc1C(F)(F)F` [Compound 27, (S)-2-trifluoromethyl-N-(4-(N-(2-oxotetrahydrofuran-3-yl)sulfamoyl)phenyl)benzamide]: the melting point lay within 186 to 187 °C. Also, the “Regulatory activity (bacterial quorum sensing)” value in the data set on C. violaceum CV026 [1] is “−”. Further, the IC50 in the data set on C. violaceum CV026 [2] is 4.91 ± 0.97 µM.
